Columns and labels:
[1] = target: T1, isolated recombinant JAK2 kinase domain (Homo sapiens, UniProt O60674); test: JAK2 enzyme assay (Caliper LabChip, peptide phosphorylation); type: biochemical; conditions: 0.2 nM JAK2, 25 μM ATP, 22° C., 30 minutes; Morrison tight binding model
T1 construct: The activity of the isolated recombinant JAK1 and JAK2 kinase domain was measured
Protocol: (§1) JAK Enzyme Assays were Carried Out as Follows:
(§2) The activity of the isolated recombinant JAK1 and JAK2 kinase domain was measured by monitoring phosphorylation of a peptide derived from JAK3 (Val-Ala-Leu-Val-Asp-Gly-Tyr-Phe-Arg-Leu-Thr-Thr, fluorescently labeled on the N-terminus with 5-carboxyfluorescein) using the Caliper LabChip® technology (Caliper Life Sciences, Hopkinton, Mass.). To determine inhibition constants (K), compounds were diluted serially in DMSO and added to 50 μL kinase reactions containing purified enzyme (1.5 nM JAK1, or 0.2 nM JAK2), 100 mM HEPES buffer (pH 7.2), 0.015% Brij-35, 1.5 μM peptide substrate, ATP (25 μM), 10 mM MgCl2, 4 mM DTT at a final DMSO concentration of 2%. Reactions were incubated at 22° C. in 384-well polypropylene microtiter plates for 30 minutes and then stopped by addition of 25 μL of an EDTA containing solution (100 mM HEPES buffer (pH 7.2), 0.015% Brij-35, 150 mM EDTA), resulting in a final EDTA concentration of 50 mM. After termination of the kinase reaction, the proportion of phosphorylated product was determined as a fraction of total peptide substrate using the Caliper LabChip® 3000 according to the manufacturer's specifications. Ki values were then determined using the Morrison tight binding model (Morrison, J. F., Biochim. Biophys. Acta. 185:269-296 (1969); William, J. W. and Morrison, J. F., Meth. Enzymol., 63:437-467 (1979)) modified for ATP-competitive inhibition [Ki=Ki,app/(1+[ATP]/Km,app)].

[2] = target: T2, isolated recombinant JAK1 kinase domain (Homo sapiens, UniProt P23458); test: JAK1 enzyme assay (Caliper LabChip, peptide phosphorylation); type: biochemical; conditions: 1.5 nM JAK1, 25 μM ATP, 22° C., 30 minutes; Morrison tight binding model
T2 construct: The activity of the isolated recombinant JAK1 and JAK2 kinase domain was measured
T2 sequence (P23458 875-1153): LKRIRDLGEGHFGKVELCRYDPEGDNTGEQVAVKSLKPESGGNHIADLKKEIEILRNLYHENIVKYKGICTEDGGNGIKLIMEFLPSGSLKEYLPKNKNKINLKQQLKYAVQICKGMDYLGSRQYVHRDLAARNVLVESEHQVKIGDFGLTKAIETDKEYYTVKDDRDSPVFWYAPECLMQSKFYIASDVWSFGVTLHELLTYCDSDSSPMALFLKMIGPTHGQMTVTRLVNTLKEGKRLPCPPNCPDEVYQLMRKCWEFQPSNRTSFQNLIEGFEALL
Protocol: as §1, §2

[3] = tested on: JAK1-dependent STAT6 phosphorylation downstream of IL-13 stimulation; test: JAK1 pathway assay in BEAS-2B cells (IL-13 stimulated pSTAT6, MSD); type: cell-based; conditions: BEAS-2B human bronchial epithelial cells, 1 hr compound incubation, IL-13 for 15 min; read-out: IL13-pSTAT6 BEAS2B IC50
Protocol: JAK1 Pathway Assay in Cell Lines was Carried Out as Follows:
Inhibitor potency (EC50) was determined in cell-based assays designed to measure JAK1 dependent STAT phosphorylation. As noted above, inhibition of IL-4, IL-13, and IL-9 signalling by blocking the Jak/Stat signaling pathway can alleviate asthmatic symptoms in pre-clinical lung inflammation models (Mathew et al., 2001, J Exp Med 193(9): 1087-1096; Kudlacz et. al., 2008, Eur J. Pharmacol 582(1-3): 154-161).
In one assay approach, TF-1 human erythroleukemia cells obtained from the American Type Culture Collection (ATCC; Manassas, Va.) were used to measure JAK1-dependent STAT6 phosphorylation downstream of IL-13 stimulation. Prior to use in the assays, TF-1 cells were starved of GM-CSF overnight in OptiMEM medium (Life Technologies, Grand Island, N.Y.) supplemented with 0.5% charcoal/dextran stripped fetal bovine serum (FBS), 0.1 mM non-essential amino acids (NEAA), and 1 mM sodium pyruvate. The assays were run in 384-well plates in serum-free OptiMEM medium using 300,000 cells per well. In a second assay approach, BEAS-2B human bronchial epithelial cells obtained from ATCC were plated at 100,000 cells per well of a 96-well plate one day prior to the experiment. The BEAS-2B assay was run in complete growth medium (bronchial epithelial basal medium plus bulletkit; Lonza; Basel, Switzerland).
Test compounds were serially diluted 1:2 in DMSO and then diluted 1:50 in medium just before use. Diluted compounds were added to the cells, for a final DMSO concentration of 0.2%, and incubated for 30 min (for the TF-1 assay) or 1 hr (for the BEAS-2B assay) at 37° C. Then, cells were stimulated with human recombinant cytokine at their respective EC90 concentrations, as previously determined for each individual lot. Cells were stimulated with IL-13 (R&D Systems, Minneapolis, Minn.) for 15 min at 37° C. The TF-1 cell reactions were stopped by the direct addition of 10× lysis buffer (Cell Signaling Technologies, Danvers, Mass.), whereas the BEAS-2B cell incubations were halted by the removal of medium and addition of 1× lysis buffer. The resultant samples were frozen in the plates at −80° C. Compound mediated inhibition of STAT6 phosphorylation was measured in the cell lysates using MesoScale Discovery (MSD) technology (Gaithersburg, Md.). EC50 values were determined as the concentration of compound required for 50% inhibition of STAT phosphorylation relative to that measured for the DMSO control.

T1 sequence (O60674 849-1124): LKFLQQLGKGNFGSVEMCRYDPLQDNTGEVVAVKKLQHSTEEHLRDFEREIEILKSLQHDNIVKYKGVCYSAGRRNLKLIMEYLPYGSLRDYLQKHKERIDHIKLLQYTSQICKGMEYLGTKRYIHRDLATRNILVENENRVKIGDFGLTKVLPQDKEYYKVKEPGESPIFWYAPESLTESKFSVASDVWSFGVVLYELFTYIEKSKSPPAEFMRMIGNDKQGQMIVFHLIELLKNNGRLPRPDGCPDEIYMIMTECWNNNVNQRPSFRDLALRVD

| Ki [1] | Ki [2] | IC50 [3] | SMILES |
| --- | --- | --- | --- |
| 0.96 nM | 0.33 nM | 74 nM | CN(C1CCN(C(=O)Cn2cc(NC(=O)c3cnc4cccnn34)c(-c3cc(Cl)ccc3OC(F)F)n2)CC1)C1COC1 [Example 1, N-[3-[5-chloro-2-(difluoromethoxy)phenyl]-1-(2-[4-[methyl(oxetan-3-yl)amino]piperidin-1-yl]-2-oxoethyl)-1H-pyrazol-4-yl]imidazo[1,2-b]pyridazine-3-carboxamide] |
| 0.2 nM | 1.5 nM | 16 nM | O=C(Nc1c[nH]nc1-c1cc(Cl)ccc1OC(F)F)c1cnc2ccc(Cl)nn12 [Example 2, 6-chloro-N-[3-[5-chloro-2-(difluoromethoxy)phenyl]-1H-pyrazol-4-yl]imidazo[1,2-b]pyridazine-3-carboxamide] |
| 0.076 nM | 0.29 nM | 21 nM | C#Cc1ccc2ncc(C(=O)Nc3c[nH]nc3-c3cc(Cl)ccc3OC(F)F)n2n1 [Example 3, N-[3-[5-chloro-2-(difluoromethoxy)phenyl]-1H-pyrazol-4-yl]-6-ethynyl-imidazo[1,2-b]pyridazine-3-carboxamide] |
| 1.2 nM | 0.36 nM | 20 nM | O=C(Nc1cn(CC(=O)N2CCC(N3CCOCC3)CC2)nc1-c1cc(Cl)ccc1OC(F)F)c1cnc2cccnn12 [Example 4, N-[3-[5-chloro-2-(difluoromethoxy)phenyl]-1-[2-[4-(morpholin-4-yl)piperidin-1-yl]-2-oxoethyl]-1H-pyrazol-4-yl]imidazo[1,2-b]pyridazine-3-carboxamide] |
| 2.4 nM | 0.56 nM | 110 nM | N#CC1(CNC2CCN(C(=O)Cn3cc(NC(=O)c4cnc5cccnn45)c(-c4cc(Cl)ccc4OC(F)F)n3)CC2)CC1 [Example 5, N-[3-[5-chloro-2-(difluoromethoxy)phenyl]-1-[2-(4-[[(1-cyanocyclopropyl)-methyl]amino]piperidin-1-yl)-2-oxoethyl]-1H-pyrazol-4-yl]imidazo[1,2-b]pyridazine-3-carboxamide] |
| 0.063 nM | 0.18 nM | 4.5 nM | O=C(Nc1c[nH]nc1-c1cc(Cl)ccc1OC(F)F)c1cnc2cccnn12 [Example 6, N-[3-[5-chloro-2-(difluoromelhoxy)phenyl]-1H-pyrazol-4-yl]imidazo[1,2-b]pyridazine-3-carboxamide] |
| 0.53 nM | 0.72 nM | 34 nM | NCCn1cc(NC(=O)c2cnc3cccnn23)c(-c2cc(Cl)ccc2OC(F)F)n1 [Example 7, N-[1-(2-aminoethyl)-3-[5-chloro-2-(difluoromethoxy)phenyl]-1H-pyrazol-4-yl]imidazo[1,2-b]pyridazine-3-carboxamide] |
| 0.14 nM | 0.28 nM | 6 nM | Cn1cc(NC(=O)c2cnc3cccnn23)c(-c2cc(Cl)ccc2OC(F)F)n1 [Example 8, N-[3-[5-chloro-2-(difluoromethoxy)phenyl]-1-methyl-1H-pyrazol-4-yl]imidazo[1,2-b]pyridazine-3-carboxamide] |
| 0.12 nM | 0.29 nM | 11 nM | O=C(Nc1c[nH]nc1-c1cc(SC2CC2)ccc1OC(F)F)c1cnc2cccnn12 [Example 9, N-[3-[5-(cyclopropylsulfanyl)-2-(difluoromethoxy)phenyl]-1H-pyrazol-4-yl]imidazo[1,2-b]pyridazine-3-carboxamide] |
| 0.26 nM | 0.41 nM | 7.5 nM | CC(C)Sc1ccc(OC(F)F)c(-c2n[nH]cc2NC(=O)c2cnc3cccnn23)c1 [Example 10, N-[3-[2-(difluoromethoxy)-5-(propan-2-ylsulfanyl)phenyl]-1H-pyrazol-4-yl]imidazo[1,2-b]pyridazine-3-carboxamide] |
| 0.69 nM | 0.51 nM | 200 nM | CSc1ccc(OC(F)F)c(-c2nn(CC(=O)N3CCC(CN4CCN(CC(=O)N(C)C)CC4)CC3)cc2NC(=O)c2cnc3cccnn23)c1 [Example 11] |
| 2 nM | 0.65 nM | 150 nM | O=C(Nc1cn(CC(=O)N2CCN(CCN3CCOCC3)CC2)nc1-c1cc(Cl)ccc1OC(F)F)c1cnc2cccnn12 [Example 12, N-[3-[5-chloro-2-(difluoromethoxy)phenyl]-1-(2-[4-[2-(morpholin-4-yl)ethyl]piperazin-1-yl]-2-oxoethyl)-1H-pyrazol-4-yl]imidazo[1,2-b]pyridazine-3-carboxamide] |

| SMILES | Ki [1] | Ki [2] | IC50 [3] |
| --- | --- | --- | --- |
| CSc1ccc(OC(F)F)c(-c2n[nH]cc2NC(=O)c2cnc3cccnn23)c1 [Example 13, N-[3-[2-(difluoromethoxy)-5-(methylsulfanyl)phenyl]-1H-pyrazol-4-yl]imidazo[1,2-b]pyridazine-3-carboxamide] | 0.05 nM | 0.11 nM | 2.9 nM |
